# Source: ChEMBL document CHEMBL1201862, “PubChem BioAssay data set” (2004)
# Where a name gives a salt, the structure may show the parent alone. The source made the active and inactive calls.
# Assays:
# [1] = Luminescence Cell-Based Dose Retest to Confirm Inhibitors of Cancer Stem Cells. [Related pubchem assays (depositor defined):AID2717, AID2721]; assay type: functional; details: Homo sapiens
# Aminopeptidase N = target: T1, Aminopeptidase N (Plasmodium falciparum FcB1/Columbia, UniProt O96935); experiment: P. falciparum M1AAP inhibitors, biochemical, fluorogenic H-Leu-NHMec substrate, 1536-well (AID 1445); parameters: species or system Plasmodium falciparum 3D7, 3D7
# T1 sequence (O96935 whole entry): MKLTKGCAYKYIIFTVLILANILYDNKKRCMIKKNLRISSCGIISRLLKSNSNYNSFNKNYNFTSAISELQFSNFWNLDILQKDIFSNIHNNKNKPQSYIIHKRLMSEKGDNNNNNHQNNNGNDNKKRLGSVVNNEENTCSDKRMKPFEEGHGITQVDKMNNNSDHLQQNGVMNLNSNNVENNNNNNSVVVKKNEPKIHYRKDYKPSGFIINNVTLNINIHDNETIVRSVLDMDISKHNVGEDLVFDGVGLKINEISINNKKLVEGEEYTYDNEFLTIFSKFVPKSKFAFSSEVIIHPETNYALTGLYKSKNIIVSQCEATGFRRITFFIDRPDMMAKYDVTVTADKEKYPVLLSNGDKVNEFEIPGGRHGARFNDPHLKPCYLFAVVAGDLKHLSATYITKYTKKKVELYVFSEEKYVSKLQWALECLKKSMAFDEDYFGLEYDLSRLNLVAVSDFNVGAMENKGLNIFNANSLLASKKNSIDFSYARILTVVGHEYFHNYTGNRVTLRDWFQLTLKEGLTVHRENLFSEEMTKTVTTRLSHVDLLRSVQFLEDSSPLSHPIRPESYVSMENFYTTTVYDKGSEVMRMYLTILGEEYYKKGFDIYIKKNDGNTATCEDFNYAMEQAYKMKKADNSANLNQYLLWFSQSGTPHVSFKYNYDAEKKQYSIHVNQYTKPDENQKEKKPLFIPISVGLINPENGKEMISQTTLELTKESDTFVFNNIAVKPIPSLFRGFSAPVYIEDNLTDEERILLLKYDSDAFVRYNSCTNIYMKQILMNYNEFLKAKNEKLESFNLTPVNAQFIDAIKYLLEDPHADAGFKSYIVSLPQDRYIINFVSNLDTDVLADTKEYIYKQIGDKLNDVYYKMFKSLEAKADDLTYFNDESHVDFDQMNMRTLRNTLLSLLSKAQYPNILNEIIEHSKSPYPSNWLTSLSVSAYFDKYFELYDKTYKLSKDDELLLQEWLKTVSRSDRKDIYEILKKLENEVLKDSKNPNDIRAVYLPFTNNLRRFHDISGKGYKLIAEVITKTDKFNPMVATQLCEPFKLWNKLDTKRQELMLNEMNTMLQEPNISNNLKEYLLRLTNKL
# Albumin = Albumin (Bos taurus, UniProt P02769); experiment: Counterscreen for inhibitors of T-cell receptor (TCR)-CD3 interaction: Fluorescence-based biochemical high throughput dose response assay to identify inhibitors of T-cell receptor (TCR)-CD3 interaction using a TAMRA-labeled BSA probe.; assay type: functional
# [2] = inhibitors of Vif binding to APOBEC3G peptide, primary screen, biochemical, TR-FRET, GST-Vif 1-94, biotin-A3G peptide, dose response retest (AID 1117319); assay type: functional;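 note: TR-FRET signal of purified GST-Vif binding a biotinylated A3G peptide; inhibitors lower the FRET signal by blocking Vif and A3G binding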
# [3] = target: T2, Heat shock factor protein 1 (Mus musculus, UniProt P38532); experiment: HSF1 potentiators in luciferase reporter cells, confirmation, cell-based, NIH3T3, luminescence, dose retest (AID 435004); assay type: functional;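 note: stress induced by proteasome inhibitor MG132 added 30 min after compound; luciferase reporter driven by HSF1 response element in NIH3T3 cells; actives raise luminescence as potentiators of the MG132 stress response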
# T2 sequence (P38532 whole entry): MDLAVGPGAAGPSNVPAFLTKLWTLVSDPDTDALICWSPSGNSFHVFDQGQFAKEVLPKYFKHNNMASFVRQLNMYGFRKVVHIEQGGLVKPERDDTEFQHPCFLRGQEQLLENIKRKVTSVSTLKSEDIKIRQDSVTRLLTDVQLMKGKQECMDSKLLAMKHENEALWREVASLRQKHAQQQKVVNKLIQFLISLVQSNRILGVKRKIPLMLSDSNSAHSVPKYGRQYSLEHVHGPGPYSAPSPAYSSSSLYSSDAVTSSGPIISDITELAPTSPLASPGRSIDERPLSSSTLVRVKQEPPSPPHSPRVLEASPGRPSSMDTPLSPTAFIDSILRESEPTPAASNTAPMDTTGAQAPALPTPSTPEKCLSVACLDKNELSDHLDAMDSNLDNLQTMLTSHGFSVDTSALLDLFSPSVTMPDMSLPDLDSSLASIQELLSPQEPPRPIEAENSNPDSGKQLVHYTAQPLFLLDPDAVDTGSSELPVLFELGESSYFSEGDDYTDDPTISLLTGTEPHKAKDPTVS
# [4] = target: DNA dC->dU-editing enzyme APOBEC-3G (Homo sapiens, UniProt Q9HC16); experiment: Dose Response confirmation of small molecule APOBEC3G DNA Deaminase Inhibitors via a fluorescence-based single-stranded DNA deaminase assay. [Related pubchem assays (depositor defined):AID493012, AID493028]; assay type: functional
# Leucine aminopeptidase = target: T3, Leucine aminopeptidase (Plasmodium falciparum 3D7, UniProt Q8IL11); experiment: P. falciparum M17LAP inhibitors, primary screen, biochemical, fluorogenic H-Leu-NHMec substrate, 1536-well (AID 1619); assay type: functional
# T3 sequence (Q8IL11 whole entry): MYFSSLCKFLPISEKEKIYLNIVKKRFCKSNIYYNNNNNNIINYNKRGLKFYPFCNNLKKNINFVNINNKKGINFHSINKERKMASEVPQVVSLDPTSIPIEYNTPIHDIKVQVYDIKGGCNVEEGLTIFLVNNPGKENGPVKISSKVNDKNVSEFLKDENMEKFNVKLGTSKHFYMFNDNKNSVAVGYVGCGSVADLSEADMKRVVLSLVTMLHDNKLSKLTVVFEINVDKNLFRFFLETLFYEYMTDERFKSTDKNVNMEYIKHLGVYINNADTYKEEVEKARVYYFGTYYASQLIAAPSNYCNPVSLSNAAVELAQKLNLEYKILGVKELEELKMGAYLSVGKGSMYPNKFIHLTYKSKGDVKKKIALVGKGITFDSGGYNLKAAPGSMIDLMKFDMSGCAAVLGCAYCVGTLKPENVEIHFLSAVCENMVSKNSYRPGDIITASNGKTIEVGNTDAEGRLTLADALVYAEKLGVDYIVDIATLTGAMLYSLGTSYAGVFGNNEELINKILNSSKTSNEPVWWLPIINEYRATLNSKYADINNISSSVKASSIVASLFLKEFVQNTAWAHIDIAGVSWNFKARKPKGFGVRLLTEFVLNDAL
# [5] = target: Voltage-dependent T-type calcium channel subunit alpha-1H (Homo sapiens, UniProt O95180); assay type: functional;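 note: channel activity triggered by adding a high calcium stimulation buffer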
# [6] = cytotoxicity in HPDE-C7 cells, cell-based, fluorescence, HTS (AID 430); assay type: functional; details: Homo sapiens
# [7] = cytotoxicity in KRAS-transformed pancreatic duct cells, primary screen, cell-based, fluorescence, HTS (AID 431); assay type: functional; details: Homo sapiens;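 note: cell line used: HPDE-C7K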
# Cytochrome P450 3A4 = Cytochrome P450 3A4 (Homo sapiens, UniProt P08684); details: Potency;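 note: confirmatory qHTS run detecting inhibitors and substrates of CYP3A4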
# [8] = Luminescence-based cell-based high throughput dose response assay to identify activators of the DAF-12 from the parasite S. stercoralis (ssDAF-12).; assay type: functional
# [9] = target: T4, Oxysterols receptor LXR-beta (Homo sapiens, UniProt P55055); experiment: LXR agonists, Gal4 luciferase reporter, dose response, counter-screen for ssDAF-12 agonist project, cell-based, luminescence, HEK293, S. stercoralis campaign (AID 720737); assay type: functional; details: read-out: IC50 (the source's name)
# T4 sequence (P55055 whole entry): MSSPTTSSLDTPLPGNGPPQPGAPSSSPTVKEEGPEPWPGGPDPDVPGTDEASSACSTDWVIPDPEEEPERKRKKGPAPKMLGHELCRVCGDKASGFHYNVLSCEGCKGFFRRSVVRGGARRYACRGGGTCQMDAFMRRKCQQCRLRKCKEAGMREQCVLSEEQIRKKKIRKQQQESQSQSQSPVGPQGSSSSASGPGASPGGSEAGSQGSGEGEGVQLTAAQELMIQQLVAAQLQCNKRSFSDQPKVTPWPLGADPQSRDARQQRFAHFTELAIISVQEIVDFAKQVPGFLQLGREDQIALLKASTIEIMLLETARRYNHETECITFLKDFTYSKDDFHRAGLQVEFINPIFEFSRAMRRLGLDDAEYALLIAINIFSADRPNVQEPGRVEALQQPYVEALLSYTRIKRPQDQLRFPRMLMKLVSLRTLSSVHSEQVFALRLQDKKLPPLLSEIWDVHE
# [10] = target: T2, Heat shock factor protein 1; experiment: inhibition of MG132-induced HSE-luciferase signal, confirmation, cell-based, NIH3T3, luminescence, dose retest (AID 2382); assay type: functional;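 note: NIH3T3 fibroblasts with HSF1-driven luciferase reporter stressed by proteasome inhibitor MG132; luminescence from HSF1-driven luciferase expression after 8 hours of MG132 stress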
# [11] = target: T5, Short transient receptor potential channel 4 (Mus musculus, UniProt Q9QUQ5); experiment: mouse TRPC4 channel inhibitors, dose response, cell-based, HEK293 TRPC4/mu-opioid, Fluo-4 calcium (AID 434942); assay type: functional;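 note: potency of inhibitors blocking the TRPC4 calcium response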
# T5 sequence (Q9QUQ5 whole entry): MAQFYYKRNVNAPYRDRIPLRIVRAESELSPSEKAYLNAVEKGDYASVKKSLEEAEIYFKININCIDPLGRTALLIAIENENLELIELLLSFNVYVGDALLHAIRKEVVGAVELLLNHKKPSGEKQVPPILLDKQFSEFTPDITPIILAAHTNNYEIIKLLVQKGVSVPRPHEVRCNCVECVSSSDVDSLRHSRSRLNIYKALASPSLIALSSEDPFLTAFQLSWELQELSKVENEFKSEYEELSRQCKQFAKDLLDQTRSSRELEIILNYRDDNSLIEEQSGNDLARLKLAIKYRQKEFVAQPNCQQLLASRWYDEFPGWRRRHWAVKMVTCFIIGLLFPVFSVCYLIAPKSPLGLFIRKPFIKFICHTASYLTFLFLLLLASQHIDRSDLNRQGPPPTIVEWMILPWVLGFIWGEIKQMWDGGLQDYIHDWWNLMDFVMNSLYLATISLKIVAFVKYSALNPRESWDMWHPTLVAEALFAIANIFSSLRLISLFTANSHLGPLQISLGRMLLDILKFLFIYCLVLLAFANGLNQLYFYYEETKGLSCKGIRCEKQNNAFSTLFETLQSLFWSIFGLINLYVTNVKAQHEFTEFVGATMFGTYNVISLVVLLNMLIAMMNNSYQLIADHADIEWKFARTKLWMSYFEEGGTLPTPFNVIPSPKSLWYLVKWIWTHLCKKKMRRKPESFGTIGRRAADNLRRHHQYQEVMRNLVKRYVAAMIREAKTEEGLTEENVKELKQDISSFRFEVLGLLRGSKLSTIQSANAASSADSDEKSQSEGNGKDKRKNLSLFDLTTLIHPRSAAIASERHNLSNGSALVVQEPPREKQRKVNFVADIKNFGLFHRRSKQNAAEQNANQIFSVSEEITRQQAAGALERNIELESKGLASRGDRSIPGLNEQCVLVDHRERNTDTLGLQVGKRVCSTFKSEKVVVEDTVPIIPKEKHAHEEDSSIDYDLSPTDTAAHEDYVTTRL
# Cytochrome P450 2C9 = Cytochrome P450 2C9 (Homo sapiens, UniProt P11712)
# Chain of Cytochrome P450 2C9 (P11712 whole entry): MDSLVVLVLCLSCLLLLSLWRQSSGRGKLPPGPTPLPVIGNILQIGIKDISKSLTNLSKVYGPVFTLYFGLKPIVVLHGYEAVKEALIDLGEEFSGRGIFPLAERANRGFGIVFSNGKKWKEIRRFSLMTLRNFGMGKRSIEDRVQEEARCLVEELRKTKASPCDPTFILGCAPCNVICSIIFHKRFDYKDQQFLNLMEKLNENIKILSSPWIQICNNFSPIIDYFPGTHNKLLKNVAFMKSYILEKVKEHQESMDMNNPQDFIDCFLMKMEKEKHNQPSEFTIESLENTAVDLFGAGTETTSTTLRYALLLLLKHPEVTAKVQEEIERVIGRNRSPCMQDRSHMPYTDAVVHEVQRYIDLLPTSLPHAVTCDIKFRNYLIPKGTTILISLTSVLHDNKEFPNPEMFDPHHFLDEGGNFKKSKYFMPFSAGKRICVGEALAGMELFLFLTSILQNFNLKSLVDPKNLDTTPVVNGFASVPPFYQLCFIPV
# Chain of Cytochrome P450 3A4 (P08684 whole entry): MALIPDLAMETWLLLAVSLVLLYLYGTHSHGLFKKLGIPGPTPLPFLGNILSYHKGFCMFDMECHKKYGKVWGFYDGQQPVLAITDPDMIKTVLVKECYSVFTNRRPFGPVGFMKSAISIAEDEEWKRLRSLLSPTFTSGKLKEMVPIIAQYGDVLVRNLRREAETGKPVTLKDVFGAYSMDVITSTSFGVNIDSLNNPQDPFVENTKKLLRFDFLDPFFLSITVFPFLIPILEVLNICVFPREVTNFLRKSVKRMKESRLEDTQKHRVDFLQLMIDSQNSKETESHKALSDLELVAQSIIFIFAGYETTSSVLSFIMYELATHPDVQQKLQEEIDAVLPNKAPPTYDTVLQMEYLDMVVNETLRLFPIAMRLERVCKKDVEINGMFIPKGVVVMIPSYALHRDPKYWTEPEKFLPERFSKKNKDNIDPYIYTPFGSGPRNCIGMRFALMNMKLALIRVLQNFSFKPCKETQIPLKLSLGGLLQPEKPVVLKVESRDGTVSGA
# Chain of Voltage-dependent T-type calcium channel subunit alpha-1H (O95180 whole entry): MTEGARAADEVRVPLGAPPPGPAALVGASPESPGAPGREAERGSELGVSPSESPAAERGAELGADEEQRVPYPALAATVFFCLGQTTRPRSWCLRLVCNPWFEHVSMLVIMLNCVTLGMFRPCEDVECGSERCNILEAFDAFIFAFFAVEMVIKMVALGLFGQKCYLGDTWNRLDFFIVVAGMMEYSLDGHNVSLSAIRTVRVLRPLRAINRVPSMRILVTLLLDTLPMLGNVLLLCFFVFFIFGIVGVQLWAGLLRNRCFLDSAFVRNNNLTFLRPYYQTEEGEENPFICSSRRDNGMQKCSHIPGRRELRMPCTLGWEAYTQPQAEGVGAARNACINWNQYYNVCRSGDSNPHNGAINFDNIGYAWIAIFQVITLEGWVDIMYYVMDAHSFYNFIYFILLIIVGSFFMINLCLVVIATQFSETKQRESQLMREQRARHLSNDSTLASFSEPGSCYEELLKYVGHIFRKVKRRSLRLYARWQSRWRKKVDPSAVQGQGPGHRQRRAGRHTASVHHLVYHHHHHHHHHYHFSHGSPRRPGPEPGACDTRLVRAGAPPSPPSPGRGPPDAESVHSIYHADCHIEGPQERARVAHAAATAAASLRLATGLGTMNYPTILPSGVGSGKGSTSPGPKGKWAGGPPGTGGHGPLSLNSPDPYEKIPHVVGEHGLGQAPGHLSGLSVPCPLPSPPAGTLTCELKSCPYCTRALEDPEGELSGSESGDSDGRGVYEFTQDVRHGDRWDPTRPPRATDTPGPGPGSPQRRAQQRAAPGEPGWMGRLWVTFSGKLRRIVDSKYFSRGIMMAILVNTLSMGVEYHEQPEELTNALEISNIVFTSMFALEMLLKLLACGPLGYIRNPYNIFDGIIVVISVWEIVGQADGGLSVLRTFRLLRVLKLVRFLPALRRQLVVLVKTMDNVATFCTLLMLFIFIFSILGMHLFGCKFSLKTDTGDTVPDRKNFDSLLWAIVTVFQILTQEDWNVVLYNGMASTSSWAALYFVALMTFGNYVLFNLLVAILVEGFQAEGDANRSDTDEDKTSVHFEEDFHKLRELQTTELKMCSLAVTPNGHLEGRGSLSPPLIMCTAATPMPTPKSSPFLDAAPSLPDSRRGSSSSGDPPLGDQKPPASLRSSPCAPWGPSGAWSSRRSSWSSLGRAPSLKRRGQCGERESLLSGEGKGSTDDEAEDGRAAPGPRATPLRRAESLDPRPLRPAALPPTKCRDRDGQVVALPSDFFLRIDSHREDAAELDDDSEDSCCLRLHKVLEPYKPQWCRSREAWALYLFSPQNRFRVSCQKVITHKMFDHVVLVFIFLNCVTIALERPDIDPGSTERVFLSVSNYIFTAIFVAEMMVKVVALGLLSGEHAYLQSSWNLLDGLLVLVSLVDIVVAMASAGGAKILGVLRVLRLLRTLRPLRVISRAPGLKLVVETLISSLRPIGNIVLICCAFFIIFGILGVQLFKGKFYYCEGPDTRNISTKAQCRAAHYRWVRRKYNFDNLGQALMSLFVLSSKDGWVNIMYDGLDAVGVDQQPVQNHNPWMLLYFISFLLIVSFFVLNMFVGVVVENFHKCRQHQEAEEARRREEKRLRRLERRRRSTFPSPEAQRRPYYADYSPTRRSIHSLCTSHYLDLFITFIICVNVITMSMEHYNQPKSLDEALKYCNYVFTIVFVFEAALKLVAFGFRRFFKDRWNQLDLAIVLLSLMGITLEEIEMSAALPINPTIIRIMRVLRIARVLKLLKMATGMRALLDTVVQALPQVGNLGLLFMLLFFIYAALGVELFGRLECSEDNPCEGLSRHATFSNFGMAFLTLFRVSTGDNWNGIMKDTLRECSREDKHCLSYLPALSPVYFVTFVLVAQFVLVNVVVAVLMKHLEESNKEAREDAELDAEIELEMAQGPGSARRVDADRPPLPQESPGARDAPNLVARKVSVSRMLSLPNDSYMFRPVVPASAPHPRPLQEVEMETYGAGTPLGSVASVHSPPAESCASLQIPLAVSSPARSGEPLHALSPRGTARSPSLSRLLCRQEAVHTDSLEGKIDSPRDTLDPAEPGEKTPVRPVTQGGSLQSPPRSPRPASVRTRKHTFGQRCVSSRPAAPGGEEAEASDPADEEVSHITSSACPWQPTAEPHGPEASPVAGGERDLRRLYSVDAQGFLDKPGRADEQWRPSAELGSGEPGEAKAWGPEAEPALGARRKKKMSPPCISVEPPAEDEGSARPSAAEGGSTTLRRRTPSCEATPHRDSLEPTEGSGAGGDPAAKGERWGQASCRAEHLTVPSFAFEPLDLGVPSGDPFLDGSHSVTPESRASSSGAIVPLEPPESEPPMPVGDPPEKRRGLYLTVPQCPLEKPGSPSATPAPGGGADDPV
# Chain of Albumin (P02769 whole entry): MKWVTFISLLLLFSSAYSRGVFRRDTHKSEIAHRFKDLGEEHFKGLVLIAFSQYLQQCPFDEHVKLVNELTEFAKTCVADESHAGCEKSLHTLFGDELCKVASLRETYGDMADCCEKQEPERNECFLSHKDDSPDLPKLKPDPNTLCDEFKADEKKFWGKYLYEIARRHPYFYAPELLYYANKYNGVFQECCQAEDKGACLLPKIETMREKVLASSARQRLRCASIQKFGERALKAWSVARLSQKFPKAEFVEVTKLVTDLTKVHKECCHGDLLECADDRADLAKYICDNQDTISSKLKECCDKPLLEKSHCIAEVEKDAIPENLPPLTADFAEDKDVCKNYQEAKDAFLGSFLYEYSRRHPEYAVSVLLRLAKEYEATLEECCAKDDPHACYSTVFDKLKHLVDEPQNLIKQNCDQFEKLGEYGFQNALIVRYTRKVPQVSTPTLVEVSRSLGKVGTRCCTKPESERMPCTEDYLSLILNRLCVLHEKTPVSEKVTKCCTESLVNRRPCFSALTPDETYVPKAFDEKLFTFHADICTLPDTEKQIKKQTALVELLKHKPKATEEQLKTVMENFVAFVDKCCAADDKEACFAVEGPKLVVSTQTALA
# Chain of DNA dC->dU-editing enzyme APOBEC-3G (Q9HC16 whole entry): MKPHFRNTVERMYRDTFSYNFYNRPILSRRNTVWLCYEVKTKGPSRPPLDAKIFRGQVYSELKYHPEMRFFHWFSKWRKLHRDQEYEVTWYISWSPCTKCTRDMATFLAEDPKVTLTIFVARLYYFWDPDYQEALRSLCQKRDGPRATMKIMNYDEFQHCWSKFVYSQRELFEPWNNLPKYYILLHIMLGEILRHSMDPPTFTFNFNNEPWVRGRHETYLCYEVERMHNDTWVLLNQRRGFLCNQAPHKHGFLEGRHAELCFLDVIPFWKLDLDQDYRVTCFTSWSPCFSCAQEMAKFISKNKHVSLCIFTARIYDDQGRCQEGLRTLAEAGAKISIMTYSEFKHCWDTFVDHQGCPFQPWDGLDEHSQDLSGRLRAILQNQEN
smiles,measurement,setting,value
O=C(CSc1nnc(-c2ccccc2O)n1Cc1ccccc1)NNC(=O)c1ccccc1O,AC50,[1],7.6 µM (active)
same,IC50,Aminopeptidase N,130 µM (active)
same,IC50,Albumin,> 94.1 µM (inactive)
CCOc1ccc2[nH]c(SCc3ccc(C(=O)OC)o3)nc2c1,IC50,[2],> 100 µM (active)
same,EC50,[3],> 260 µM (inactive)
COc1ccc2cc(C3(C)NC(=O)N(CC(=O)Nc4c(C)n(C)n(-c5ccccc5)c4=O)C3=O)ccc2c1 (configuration not stated),IC50,[2],> 100 µM (active)
Sc1nnc(-c2ccco2)[nH]1,IC50,[4],12 µM (active)
same,IC50,Leucine aminopeptidase,11 µM (active)
CCCC(c1nnnn1Cc1ccco1)N1CCN(c2cc(Cl)ccc2C)CC1 (configuration not stated),EC50,[5],0.728 µM (active)
CN(C)S(=O)(=O)N(CC(=O)Nc1ccc2ccccc2c1)c1ccccc1,EC50,[5],3.79 µM (active)
CC1=C(/C=C/C(C)=C/C=C/C(C)=C/C(=O)O)C(C)(C)CCC1 [TRETINOIN],EC50,[6],> 20 µM (not active)
same,EC50,[7],> 20 µM (not active)
same,AC50,Cytochrome P450 3A4,39.8 µM (inconclusive)
O=c1c(O)c(-c2ccccc2)oc2ccccc12 [FLAVONOL],AC50,Cytochrome P450 3A4,25.1 µM (inconclusive)
CC(/C=N/NC(=O)Cn1cnc2ccccc21)=C\c1ccccc1,IC50,[8],> 67.5 µM (inactive)
same,EC50,[9],> 67.5 µM (inactive)
same,EC50,[10],> 195 µM (not active)
Clc1ccc(CN2C3=NCCN3c3ccccc32)cc1Cl,EC50,[11],1.19 µM (active)
O=C(NCc1ccc2c(c1)OCO2)C1CC(c2cccc(Br)c2)=NO1 (configuration not stated),AC50,Cytochrome P450 2C9,inconclusive
same,EC50,[5],1.96 µM (active)
COc1cc2c(cc1OC)C(=O)OC2 [METAMECONINE],AC50,Cytochrome P450 3A4,12.6 µM (inconclusive)
NNCc1ccccc1 [BENZYLHYDRAZINE HYDROCHLORIDE],AC50,Cytochrome P450 3A4,7.94 µM (inconclusive)
CN(C)NC1CCS(=O)(=O)C1 (configuration not stated),IC50,[2],> 100 µM (active)
COc1ccc(OC)c(C2C3=C(O)CCCC3=NC(C)=C2C(=O)Nc2cccnc2)c1 (configuration not stated),IC50,Aminopeptidase N,52.9 µM (active)
CC1(C)CC2CC(C)(CN2C(=O)c2cc(-c3ccc(O)cc3)on2)C1 (configuration not stated),EC50,[11],5.31 µM (active)
COC(=O)NC(/C=C/c1ccccc1)[C@]1(C(C)=O)CCCC1=O (some centres not stated),AC50,Cytochrome P450 3A4,3.98 µM (inconclusive)
Cc1c(C(c2ccccc2Cl)c2c(O)oc3ccccc3c2=O)c(=O)n(-c2ccccc2)n1C (configuration not stated),IC50,Aminopeptidase N,77.1 µM (active)
CCn1c(SCc2nc(-c3ccccc3)no2)nc2ccccc21,EC50,[5],331 µM (active)
COC(=O)[C@@H](Cc1c[nH]c2ccccc12)NC(=O)c1ccc2c(c1)OCO2,EC50,[3],> 260 µM (inactive)
same,IC50,[8],> 67.6 µM (inactive)
same,EC50,[9],> 67.6 µM (inactive)
O=Cc1cn(CC(=O)N2CCCc3ccccc32)c2ccccc12,IC50,Aminopeptidase N,22.8 µM (active)
